# Source: article PMC11995724, “Antibiotic target discovery by integrated phenotypic and activity-based profiling of electrophilic fragments” (Cell chemical biology, 2025)
# Where a name gives a salt, the structure may show the parent alone.
# Test: in vitro
# Settings: human, hek293t cells
row,SMILES,"viability at 48 h, 25 µM"
1,"CC(Cl)C(=O)NCCc1nc(C2CCCCC2)cs1 (stereo not shown) [7-F09, 2-chloro-N-[2-(4-cyclohexyl-1,3-thiazol-2-yl)ethyl]propanamide]",84.8%
2,"O=C(CCl)NCCc1nc2c(s1)CCCCC2 [4-J21, 2-chloro-N-(2-{4H,5H,6H,7H,8H-cyclohepta[d][1,3]thiazol-2-yl}ethyl)acetamide]",15%
3,"COc1ccc(OC)c(-c2csc(NC(=O)CCl)n2)c1 [4-H12, 2-chloro-N-[4-(2,5-dimethoxyphenyl)-1,3-thiazol-2-yl]acetamide]",1.27%
4,"CC(Cl)C(=O)N1CCC(n2c(=O)[nH]c3ccccc32)CC1 (stereo not shown) [6-N05, 1-[1-(2-chloropropanoyl)piperidin-4-yl]-2,3-dihydro-1H-1,3-benzodiazol-2-one]",109%
5,"CC(Cl)C(=O)N1CCCC(c2nc(-c3cccc(F)c3)no2)C1 (stereo not shown) [6-N21, 2-chloro-1-{3-[3-(3-fluorophenyl)-1,2,4-oxadiazol-5-yl]piperidin-1-yl}propan-1-one]",90.2%
6,"Cc1ccsc1C=C(C#N)C(=O)N1CCN(c2ccccc2)CC1 [8-B13, 3-(3-methylthiophen-2-yl)-2-(4-phenylpiperazine-1-carbonyl)prop-2-enenitrile]",92.4%
7,"O=C(Nc1cc(F)ccc1F)N1CCSSCC1 [10-H11, N-(2,5-difluorophenyl)-1,2,5-dithiazepane-5-carboxamide]",94.9%
8,"C=CC(=O)N1CCOCC2(CC2)C1 [2-M15, 1-{5-oxa-8-azaspiro[2.6]nonan-8-yl}prop-2-en-1-one]",180%
9,"CC(NC(=O)C(C#N)=Cc1ccco1)c1cccc(-n2ccnc2)c1 (stereo not shown) [9-H04, 2-cyano-3-(furan-2-yl)-N-{1-[3-(1H-imidazol-1-yl)phenyl]ethyl}prop-2-enamide]",127%
10,"C=CC(=O)NCc1ccc(C(=O)N2CCCC(c3nnc[nH]3)C2)cc1 (stereo not shown) [3-E19, N-({4-[3-(4H-1,2,4-triazol-3-yl)piperidine-1-carbonyl]phenyl}methyl)prop-2-enamide]",34.3%
11,"C=CC(=O)N(Cc1cnn(C(C)C)c1)c1ccc2nc(C)oc2c1 [2-C13, N-(2-methyl-1,3-benzoxazol-6-yl)-N-{[1-(propan-2-yl)-1H-pyrazol-4-yl]methyl}prop-2-enamide]",185%
12,"CC(Cl)C(=O)NCc1nnc(-c2ccncc2F)s1 (stereo not shown) [7-K18, 2-chloro-N-{[5-(3-fluoropyridin-4-yl)-1,3,4-thiadiazol-2-yl]methyl}propanamide]",78.4%
13,"O=C(CCl)N1N=C(C=Cc2ccco2)CC1c1ccco1 (stereo not shown) [4-M22, 2-chloro-1-[5-(furan-2-yl)-3-[2-(furan-2-yl)ethenyl]-4,5-dihydro-1H-pyrazol-1-yl]ethan-1-one]",-0.145%
14,"Cc1cc(C)c(C(=O)CCl)c(C)c1 [10-C08, 2-chloro-1-(2,4,6-trimethylphenyl)ethan-1-one]",97.8%
15,"O=C(CCl)Nc1ccc2ccccc2c1 [4-B12, 2-chloro-N-(naphthalen-2-yl)acetamide]",0.59%
16,"Cn1ccc(-c2nc(CNC(=O)CCl)cs2)n1 [6-B09, 2-chloro-N-{[2-(1-methyl-1H-pyrazol-3-yl)-1,3-thiazol-4-yl]methyl}acetamide hydrochloride]",1.33%
17,"COc1ccc(NC(=O)CCl)cc1S(=O)(=O)N(C)C [4-E15, 2-chloro-N-[3-(dimethylsulfamoyl)-4-methoxyphenyl]acetamide]",0.774%
18,"CC(C)Oc1ccccc1C=C(C#N)C(=O)Nc1ccc(Cl)cc1 [9-L20, N-(4-chlorophenyl)-2-cyano-3-[2-(propan-2-yloxy)phenyl]prop-2-enamide]",89.4%
19,"Cn1c(CNC=C(C#N)C(=O)Nc2ccccc2)cc(=O)n(C)c1=O [9-G21, 2-cyano-3-{[(1,3-dimethyl-2,6-dioxo-1,2,3,6-tetrahydropyrimidin-4-yl)methyl]amino}-N-phenylprop-2-enamide]",115%
20,"CCOC(=O)c1cnn2ccc(NC(=O)C(C)Cl)cc12 (stereo not shown) [5-N21, ethyl 5-(2-chloropropanamido)pyrazolo[1,5-a]pyridine-3-carboxylate]",89.8%
21,"Cc1ccc(S(=O)(=O)NC2CN(C(=O)CCl)C2)cc1 [5-E07, N-[1-(2-chloroacetyl)azetidin-3-yl]-4-methylbenzene-1-sulfonamide]",0.324%
22,"O=C1C=CC(=O)N1c1ccc(F)cc1 [10-M10, 1-(4-fluorophenyl)-2,5-dihydro-1H-pyrrole-2,5-dione]",68.4%
23,"CC(Cl)C(=O)NCC(C)c1nncn1C (stereo not shown) [7-A07, 2-chloro-N-[2-(4-methyl-4H-1,2,4-triazol-3-yl)propyl]propanamide]",84.8%
24,"COc1ccc(C=C(C#N)C(=O)Nc2ccc(C)cc2)cc1O [9-O12, 2-cyano-3-(3-hydroxy-4-methoxyphenyl)-N-(4-methylphenyl)prop-2-enamide]",109%
25,"CC(Cl)C(=O)Nc1ccc2c(c1)ncn2CCN(C)C (stereo not shown) [6-P15, 2-chloro-N-{1-[2-(dimethylamino)ethyl]-1H-1,3-benzodiazol-5-yl}propanamide]",113%
26,"N#CC(=Cc1ccc(Cl)c([N+](=O)[O-])c1)C(=O)N1CCCC1 [9-N05, 3-(4-chloro-3-nitrophenyl)-2-(pyrrolidine-1-carbonyl)prop-2-enenitrile]",5.4%

row,SMILES,"viability at 48 h, 25 µM"
1,"C=CC(=O)NCc1ncc(C)o1 [2-P21, N-[(5-methyl-1,3-oxazol-2-yl)methyl]prop-2-enamide]",48.8%
2,"C=CC(=O)N1CCC(C(=O)N2CCC(CC(=O)N(C)C)CC2)CC1 [2-H09, N,N-dimethyl-2-{1-[1-(prop-2-enoyl)piperidine-4-carbonyl]piperidin-4-yl}acetamide]",61.5%
3,"CC(Cl)C(=O)NCCc1c[nH]c2ncccc12 (stereo not shown) [7-C12, 2-chloro-N-(2-{1H-pyrrolo[2,3-b]pyridin-3-yl}ethyl)propanamide]",88.4%
4,"Cc1ccc(C)c(N2C(=O)C=CC2=O)c1 [10-F13, 1-(2,5-dimethylphenyl)-2,5-dihydro-1H-pyrrole-2,5-dione]",109%
5,"Cn1cc(C=C(C#N)C(=O)NCc2ccccc2)cn1 [8-J10, N-benzyl-2-cyano-3-(1-methyl-1H-pyrazol-4-yl)prop-2-enamide]",111%
6,"COc1ccc(NC(=O)C(C)Cl)c([N+](=O)[O-])c1 (stereo not shown) [6-B08, 2-chloro-N-(4-methoxy-2-nitrophenyl)propanamide]",90.1%
7,"Cc1ccc(NC(=O)C(C#N)=Cc2cccc(C(F)(F)F)c2)c(C)c1 [8-H11, 2-cyano-N-(2,4-dimethylphenyl)-3-[3-(trifluoromethyl)phenyl]prop-2-enamide]",75%
8,"Cc1ccc(C(=O)c2ccccc2)c(NC(=O)CCl)c1 [4-B19, N-(2-benzoyl-5-methylphenyl)-2-chloroacetamide]",0.105%
9,"C=CC(=O)NCc1nc2ccccc2n1C1CC1 [2-N03, N-[(1-cyclopropyl-1H-1,3-benzodiazol-2-yl)methyl]prop-2-enamide]",69.4%
10,"COc1ccc(C=C(C#N)C(=O)Nc2cc(C)ccc2C)cc1Cl [9-B22, 3-(3-chloro-4-methoxyphenyl)-2-cyano-N-(2,5-dimethylphenyl)prop-2-enamide]",92.9%
11,"C=CC(=O)N1CCOC(Cn2nc(C)nc2C)C1 (stereo not shown) [1-B09, 1-{2-[(3,5-dimethyl-1H-1,2,4-triazol-1-yl)methyl]morpholin-4-yl}prop-2-en-1-one]",161%
12,"C=CC(=O)NCc1nc(OC)cc(OC)n1 [2-M20, N-[(4,6-dimethoxypyrimidin-2-yl)methyl]prop-2-enamide]",99.2%
13,"O=C(CCl)Cc1ccc(F)c(F)c1 [10-O17, 1-chloro-3-(3,4-difluorophenyl)propan-2-one]",28%
14,"N#CC(=Cc1c(F)cccc1F)C(=O)NCCc1ccccc1 [8-D18, 2-cyano-3-(2,6-difluorophenyl)-N-(2-phenylethyl)prop-2-enamide]",47.1%
15,"C=CC(=O)N1CCC(C(=O)NC(C)(C)CSC)CC1 [3-M14, N-[2-methyl-1-(methylsulfanyl)propan-2-yl]-1-(prop-2-enoyl)piperidine-4-carboxamide]",153%
16,"C=CC(=O)NCC1CCC2(CCCOC2)O1 (stereo not shown) [2-O13, N-({1,7-dioxaspiro[4.5]decan-2-yl}methyl)prop-2-enamide]",168%
17,"N#CC(=Cc1cccs1)C(=O)Nc1cccc2ccccc12 [9-M22, 2-cyano-N-(naphthalen-1-yl)-3-(thiophen-2-yl)prop-2-enamide]",100%
18,"COc1ccc(C=C(C#N)C(=O)NC(C)c2ccccc2)cc1O (stereo not shown) [8-J18, 2-cyano-3-(3-hydroxy-4-methoxyphenyl)-N-(1-phenylethyl)prop-2-enamide]",93.3%
19,"O=C(CCl)N1CCN(Cc2ccon2)CC1 [5-O04, 2-chloro-1-{4-[(1,2-oxazol-3-yl)methyl]piperazin-1-yl}ethan-1-one]",104%
20,"CC(C)c1ccc(C(C)NC(=O)CCl)cc1 (stereo not shown) [4-I05, 2-chloro-N-{1-[4-(propan-2-yl)phenyl]ethyl}acetamide]",1.47%
21,"Cc1nsc(N2CCN(C(=O)C(C)Cl)CC2)c1C#N (stereo not shown) [6-H15, 5-[4-(2-chloropropanoyl)piperazin-1-yl]-3-methyl-1,2-thiazole-4-carbonitrile]",91.4%
22,"C=CC(=O)N1CCCC(c2nc(C)no2)C1 (stereo not shown) [2-K12, 1-[3-(3-methyl-1,2,4-oxadiazol-5-yl)piperidin-1-yl]prop-2-en-1-one]",101%
23,"COC(=O)c1cccc(C(=O)CCl)c1 [10-I11, methyl 3-(2-chloroacetyl)benzoate]",1.87%
24,"CCOc1cccc(N2CCN(C(=O)C(C)Cl)CC2)n1 (stereo not shown) [7-G07, 2-chloro-1-[4-(6-ethoxypyridin-2-yl)piperazin-1-yl]propan-1-one]",83.5%
25,"CC(Cl)C(=O)N1CCCC1c1nc(-c2ccccc2)n[nH]1 (stereo not shown) [7-I09, 2-chloro-1-[2-(3-phenyl-1H-1,2,4-triazol-5-yl)pyrrolidin-1-yl]propan-1-one]",86.8%
26,"C=CC(=O)N(Cc1ccc2cnn(C)c2c1)CC(C)(C)C [2-O05, N-(2,2-dimethylpropyl)-N-[(1-methyl-1H-indazol-6-yl)methyl]prop-2-enamide]",102%
